Measured values taken from patent publication US10611730B2, “Benzimidazolone and benzothiazolone compounds and their use as AMPA receptor modulators” (Janssen Pharmaceutica NV, priority 2015, dated 2020).

molecular target: TARP γ8 dependent AMPA receptor (GluA1o-g8 fusion channel) (Homo sapiens (Human), UniProt P42261+Q8WXS5); assay: Calcium flux assay (FLIPR), HEK293 cells expressing GRIA1o-CACNG8 fusion; assay type: cell-based; conditions: inhibition of calcium flux after 15 μM glutamate, read-out: GluR1-γ8 pIC50 (converted)
Sequence (P42261 other isoform, or with tags, fused parts or gaps): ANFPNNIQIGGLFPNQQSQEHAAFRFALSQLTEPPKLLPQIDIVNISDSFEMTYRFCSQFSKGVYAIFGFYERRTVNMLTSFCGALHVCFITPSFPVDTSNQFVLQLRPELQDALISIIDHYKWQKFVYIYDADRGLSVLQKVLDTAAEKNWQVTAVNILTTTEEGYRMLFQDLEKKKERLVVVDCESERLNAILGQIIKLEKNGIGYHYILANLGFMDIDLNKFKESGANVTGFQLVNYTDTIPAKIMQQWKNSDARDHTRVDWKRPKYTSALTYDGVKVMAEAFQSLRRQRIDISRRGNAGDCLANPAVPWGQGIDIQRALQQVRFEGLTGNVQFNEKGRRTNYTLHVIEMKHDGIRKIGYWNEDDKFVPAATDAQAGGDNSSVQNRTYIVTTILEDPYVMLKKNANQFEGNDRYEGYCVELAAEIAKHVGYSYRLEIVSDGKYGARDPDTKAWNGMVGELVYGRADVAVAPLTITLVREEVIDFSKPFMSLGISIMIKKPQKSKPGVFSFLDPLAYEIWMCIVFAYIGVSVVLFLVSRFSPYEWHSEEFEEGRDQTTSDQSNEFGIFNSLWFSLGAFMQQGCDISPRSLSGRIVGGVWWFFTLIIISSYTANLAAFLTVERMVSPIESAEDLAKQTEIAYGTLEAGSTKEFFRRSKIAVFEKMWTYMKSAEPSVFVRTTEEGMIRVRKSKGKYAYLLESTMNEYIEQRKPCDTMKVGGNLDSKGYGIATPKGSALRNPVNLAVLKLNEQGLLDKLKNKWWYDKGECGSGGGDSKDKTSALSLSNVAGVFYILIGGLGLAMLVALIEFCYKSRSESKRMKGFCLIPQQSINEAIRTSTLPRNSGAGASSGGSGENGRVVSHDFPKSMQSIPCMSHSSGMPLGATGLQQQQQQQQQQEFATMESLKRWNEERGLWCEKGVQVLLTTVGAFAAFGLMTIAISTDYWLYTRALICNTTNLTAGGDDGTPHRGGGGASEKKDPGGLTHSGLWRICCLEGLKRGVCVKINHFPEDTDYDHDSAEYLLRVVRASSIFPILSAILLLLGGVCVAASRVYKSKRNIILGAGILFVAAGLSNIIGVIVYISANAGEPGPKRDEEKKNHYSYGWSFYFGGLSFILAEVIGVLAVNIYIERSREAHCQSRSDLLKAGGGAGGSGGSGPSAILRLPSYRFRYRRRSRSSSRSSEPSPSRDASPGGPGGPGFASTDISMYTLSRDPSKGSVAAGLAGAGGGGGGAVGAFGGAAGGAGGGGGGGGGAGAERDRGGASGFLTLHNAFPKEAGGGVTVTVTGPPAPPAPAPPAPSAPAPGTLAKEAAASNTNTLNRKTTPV
From the text: This assay was used to test compounds for their ability to inhibit TARP γ8 dependent AMPA receptor activity.
An in vitro assay was used to determine the potency of test compounds as inhibitors of the glutamate response of the channel formed by GluA1o-g8. To ensure a 1:1 stoichiometry of GluA1o and g8 subunits in the expressed channel, a fusion of the cDNAs for GRIA1o and CACNG8 was used. […] A clonal cell line in HEK293 cells stably expressing this construct, with a geneticin selection marker, was generated for use in this assay. Cell expressing the GRIAlo-CACNG8 fusion construct were grown in a monolayer in 96- or 384-well microtiter plates. […] The cells were then loaded with a calcium-sensitive dye (Calcium-5 or Calcium-6, Molecular Devices) and the test compounds at a range of concentrations.
The fluorescence in each well was normalized to the fluorescence of negative and positive control wells. […] The responses to glutamate as functions of the test compound concentrations were fitted to a four-parameter logistic function. The fitted parameter corresponding to the midpoint was taken to be the potency of inhibition of the compound.

IC50 [nM]	SMILES
794	N#CC1(c2cccc(Cl)c2-c2ccc3[nH]c(=O)[nH]c3c2)CCC1 [Example 129, 1-[3-Chloro-2-(2-oxo-1,3-dihydrobenzimidazol-5-yl)phenyl]cyclobutanecarbonitrile]
251	O=c1[nH]c2ccc(-c3c(Cl)ccc(CN4CCOCC4)c3Cl)cc2[nH]1 [Example 139, 5-[2,6-Dichloro-3-(morpholinomethyl)phenyl]-1,3-dihydrobenzimidazol-2-one]
100	COc1cccc(OCC(C)(C)C)c1-c1ccc2[nH]c(=O)[nH]c2c1 [Example 104, 5-[2-(2,2-Dimethylpropoxy)-6-methoxy-phenyl]-1,3-dihydrobenzimidazol-2-one]
501	COC(=O)c1ccc(C)c(-c2ccc3[nH]c(=O)[nH]c3c2)c1 [Example 47, Methyl 4-methyl-3-(2-oxo-1,3-dihydrobenzimidazol-5-yl)benzoate]
2510	Cc1noc(-c2cccc(-c3ccc4[nH]c(=O)sc4c3)c2C)n1 [Example 204, 6-[2-Methyl-3-(3-methyl-1,2,4-oxadiazol-5-yl)phenyl]-3H-1,3-benzothiazol-2-one]
50.1	C[C@@H](Oc1cccc(Cl)c1-c1ccc2[nH]c(=O)[nH]c2c1)C(F)(F)F (single isomer, unassigned) [Example 119, (R*)-5-[2-Chloro-6-(2,2,2-trifluoro-1-methyl-ethoxy)phenyl]-1,3-dihydrobenzimidazol-2-one]
1580	N#Cc1ccc(Cl)c(-c2ccc3[nH]c(=O)[nH]c3c2)c1 [Example 40, 4-Chloro-3-(2-oxo-1,3-dihydrobenzimidazol-5-yl)benzonitrile]
316	N#Cc1cccc(-c2ccc3[nH]c(=O)[nH]c3c2)c1Cl [Example 68, 2-Chloro-3-(2-oxo-1,3-dihydrobenzimidazol-5-yl)benzonitrile]
398	COc1cccc(OCC(F)F)c1-c1ccc2[nH]c(=O)[nH]c2c1 [Example 102, 5-[2-(2,2-Difluoroethoxy)-6-methoxy-phenyl]-1,3-dihydrobenzimidazol-2-one]
1580	COc1cccc(-c2cccc3cccnc23)c1-c1ccc2[nH]c(=O)[nH]c2c1 [Example 182, 5-[2-Methoxy-6-(8-quinolyl)phenyl]-1,3-dihydrobenzimidazol-2-one]
50.1	COC(=O)c1cccc(-c2ccc3[nH]c(=O)[nH]c3c2)c1C [Example 46, Methyl 2-methyl-3-(2-oxo-1,3-dihydrobenzimidazol-5-yl)benzoate]
2000	O=c1[nH]c2ccc(-c3c(Cl)cccc3-c3cn[nH]c3)cc2[nH]1 [Example 176, 5-[2-Chloro-6-(1H-pyrazol-4-yl)phenyl]-1,3-dihydrobenzimidazol-2-one]
39.8	O=c1[nH]c2ccc(-c3cccc(OC4CC4)c3Cl)cc2[nH]1 [Example 109, 5-[2-Chloro-3-(cyclopropoxy)phenyl]-1,3-dihydrobenzimidazol-2-one]
158	O=c1[nH]c2ccc(-c3c(Cl)cc(F)cc3Cl)cc2[nH]1 [Example 50, 5-(2,6-Dichloro-4-fluoro-phenyl)-1,3-dihydrobenzimidazol-2-one]
1000	O=c1[nH]c2ccc(-c3cccc(CN4CCOCC4)c3Cl)cc2[nH]1 [Example 141, 5-[2-Chloro-3-(morpholinomethyl)phenyl]-1,3-dihydrobenzimidazol-2-one]
7.94	CC(C)Oc1cccc(OC(F)(F)F)c1-c1ccc2[nH]c(=O)[nH]c2c1 [Example 88, 5-[2-Isopropoxy-6-(trifluoromethoxy)phenyl]-1,3-dihydrobenzimidazol-2-one]
31.6	N#CCc1cccc(Br)c1-c1ccc2[nH]c(=O)[nH]c2c1 [Example 132, 2-[3-Bromo-2-(2-oxo-1,3-dihydrobenzimidazol-5-yl)phenyl]acetonitrile]
251	COc1cccc(Cl)c1-c1ccc2[nH]c(=O)[nH]c2c1 [Example 20, 5-(2-Chloro-6-methoxy-phenyl)-1,3-dihydrobenzimidazol-2-one]
100	N#CCc1cccc(C2CC2)c1-c1ccc2[nH]c(=O)[nH]c2c1 [Example 138, 2-[3-Cyclopropyl-2-(2-oxo-1,3-dihydrobenzimidazol-5-yl)phenyl]acetonitrile]
316	O=c1[nH]c2ccc(-c3c(Cl)cccc3-c3ccncc3)cc2[nH]1 [Example 170, 5-[2-Chloro-6-(4-pyridyl)phenyl]-1,3-dihydrobenzimidazol-2-one]

IC50 [nM]	SMILES
10	Cc1c(-c2ccc3[nH]c(=O)[nH]c3c2)cccc1-c1nc(C2CC2)no1 [Example 201, 5-(3-(3-cyclopropyl-1,2,4-oxadiazol-5-yl)-2-methylphenyl)-1H-benzo[d]imidazol-2(3H)-one]
20	O=c1[nH]c2ccc(-c3c(Cl)cccc3-c3ccc(F)cc3)cc2[nH]1 [Example 163, 5-[2-Chloro-6-(4-fluorophenyl)phenyl]-1,3-dihydrobenzimidazol-2-one]
100	O=c1[nH]c2ccc(-c3ccccc3-c3ccccc3)cc2[nH]1 [Example 5, 5-(2-Phenylphenyl)-1,3-dihydrobenzimidazol-2-one]
1260	CC(C)n1nccc1-c1cccc(Cl)c1-c1ccc2[nH]c(=O)[nH]c2c1 [Example 175, 5-[2-Chloro-6-(2-isopropylpyrazol-3-yl)phenyl]-1,3-dihydrobenzimidazol-2-one]
251	O=c1[nH]c2ccc(-c3c(Cl)cccc3-c3cncc(C(F)(F)F)c3)cc2[nH]1 [Example 169, 5-[2-Chloro-6-[5-(trifluoromethyl)-3-pyridyl]phenyl]-1,3-dihydrobenzimidazol-2-one]
6310	Cc1c(CN2CC(F)C2)cccc1-c1ccc2[nH]c(=O)[nH]c2c1 [Example 157, 5-[3-[(3-Fluoroazetidin-1-yl)methyl]-2-methyl-phenyl]-1,3-dihydrobenzimidazol-2-one]
398	COc1cccc(OCC(F)(F)F)c1-c1ccc2[nH]c(=O)[nH]c2c1 [Example 103, 5-[2-Methoxy-6-(2,2,2-trifluoroethoxy)phenyl]-1,3-dihydrobenzimidazol-2-one]
20	O=c1[nH]c2ccc(-c3c(Cl)cccc3OCC3CC3(F)F)cc2[nH]1 (racemic) [Example 93, (±)-5-[2-Chloro-6-[(2,2-difluorocyclopropyl)methoxy]phenyl]-1,3-dihydrobenzimidazol-2-one]
39.8	N#Cc1ccc(-c2cccc(Cl)c2-c2ccc3[nH]c(=O)[nH]c3c2)cc1 [Example 164, 4-[3-Chloro-2-(2-oxo-1,3-dihydrobenzimidazol-5-yl)phenyl]benzonitrile]
50.1	Cc1nc(-c2cccc(-c3ccc4[nH]c(=O)[nH]c4c3)c2C)no1 [Example 71, 5-[2-Methyl-3-(5-methyl-1,2,4-oxadiazol-3-yl)phenyl]-1,3-dihydrobenzimidazol-2-one]
631	O=c1[nH]c2ccc(-c3c(Cl)ccc(-c4nnco4)c3Cl)cc2[nH]1 [Example 192, 5-[2,6-Dichloro-3-(1,3,4-oxadiazol-2-yl)phenyl]-1,3-dihydrobenzimidazol-2-one]
50.1	Cn1cc(-c2cccc(-c3ccc4[nH]c(=O)[nH]c4c3)c2Cl)cn1 [Example 185, 5-[2-Chloro-3-(1-methylpyrazol-4-yl)phenyl]-1,3-dihydrobenzimidazol-2-one]
126	O=c1[nH]c2ccc(-c3c(Cl)cccc3-c3cccnc3)cc2[nH]1 [Example 165, 5-[2-Chloro-6-(3-pyridyl)phenyl]-1,3-dihydrobenzimidazol-2-one]
0.1	Cc1cc(-c2c(Cl)cccc2OC(F)(F)F)cc2[nH]c(=O)[nH]c12 [Example 211, 6-(2-Chloro-6-(trifluoromethoxy)phenyl)-4-methyl-1H-benzo[d]imidazol-2(3H)-one]
200	CC(C)(C)OC(=O)N1CC(Oc2cccc(-c3ccc4[nH]c(=O)[nH]c4c3)c2Cl)C1 [Example 114, tert-Butyl 3-[2-chloro-3-(2-oxo-1,3-dihydrobenzimidazol-5-yl)phenoxy]azetidine-1-carboxylate]
200	Cc1ccc(Cl)c(-c2ccc3[nH]c(=O)[nH]c3c2)c1 [Example 19, 5-(2-Chloro-5-methyl-phenyl)-1,3-dihydrobenzimidazol-2-one]
316	O=c1[nH]c2ccc(-c3cccc(-c4nnc(C5CC5)o4)c3Cl)cc2[nH]1 [Example 196, 5-[2-Chloro-3-(5-cyclopropyl-1,3,4-oxadiazol-2-yl)phenyl]-1,3-dihydrobenzimidazol-2-one]
200	Cc1c(CN2CCOC(C)C2)cccc1-c1ccc2[nH]c(=O)[nH]c2c1 (racemic) [Example 150, (±)-5-[2-Methyl-3-[(2-methylmorpholin-4-yl)methyl]phenyl]-1,3-dihydrobenzimidazol-2-one]
631	O=c1[nH]c2ccc(-c3cccc(CN4CCCCC4)c3Cl)cc2[nH]1 [Example 142, 5-[2-Chloro-3-(1-piperidylmethyl)phenyl]-1,3-dihydrobenzimidazol-2-one]
2000	O=c1[nH]c2ccc(-c3cccc(-c4nnco4)c3Cl)cc2[nH]1 [Example 190, 5-[2-Chloro-3-(1,3,4-oxadiazol-2-yl)phenyl]-1,3-dihydrobenzimidazol-2-one]

SMILES	IC50 [nM]
Cc1c(CN2CC3CC(C2)O3)cccc1-c1ccc2[nH]c(=O)[nH]c2c1 [Example 158, 5-[2-Methyl-3-(6-oxa-3-azabicyclo[3;1;1]heptan-3-ylmethyl)phenyl]-1,3-dihydrobenzimidazol-2-one]	6310
